Source: patent publication US7718703B2, “Norvaline derivative and method for preparation thereof” (Mitsubishi Tanabe Pharma Corporation, priority 2006, dated 2010)

What was measured:
[1] = target: T1, human GlyT2 (Homo sapiens, UniProt Q9Y345); experiment: Glycine uptake assay (GlyT2 assay); format: cell-based; conditions: HEK 293 cells stably transfected with human GlyT2; 14C-glycine 10 μM; room temperature 2-3 hours
T1 construct: expressed in transfected cells
T1 sequence (Q9Y345 1-797): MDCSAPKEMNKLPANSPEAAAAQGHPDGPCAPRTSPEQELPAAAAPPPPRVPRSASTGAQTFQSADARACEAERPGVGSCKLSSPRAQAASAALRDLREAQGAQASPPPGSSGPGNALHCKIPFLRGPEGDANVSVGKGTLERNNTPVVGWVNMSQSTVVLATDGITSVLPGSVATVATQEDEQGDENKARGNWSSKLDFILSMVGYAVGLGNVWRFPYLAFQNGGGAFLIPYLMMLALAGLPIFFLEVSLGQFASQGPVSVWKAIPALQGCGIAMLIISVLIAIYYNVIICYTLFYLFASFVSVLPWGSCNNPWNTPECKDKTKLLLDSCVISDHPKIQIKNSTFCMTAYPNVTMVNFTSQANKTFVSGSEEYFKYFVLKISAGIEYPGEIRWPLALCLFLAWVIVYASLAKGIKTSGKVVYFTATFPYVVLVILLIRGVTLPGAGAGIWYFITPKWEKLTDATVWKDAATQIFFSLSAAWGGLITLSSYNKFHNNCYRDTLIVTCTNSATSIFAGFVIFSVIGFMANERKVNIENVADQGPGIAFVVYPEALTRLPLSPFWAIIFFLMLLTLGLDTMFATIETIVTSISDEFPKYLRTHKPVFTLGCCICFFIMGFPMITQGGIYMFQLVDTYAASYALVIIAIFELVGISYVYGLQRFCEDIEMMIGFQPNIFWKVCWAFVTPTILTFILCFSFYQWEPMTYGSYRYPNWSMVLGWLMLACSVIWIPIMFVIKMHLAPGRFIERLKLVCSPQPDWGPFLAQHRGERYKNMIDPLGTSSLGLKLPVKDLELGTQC
Experimental: Experiment 1 Glycine uptake assay (GlyT2 and GlyT1 assay)
Inhibitory activity on GlyT2 and GlyT1 was examined by glycine uptake assays using cells expressing GlyT2 or GlyT1, as described in the literatures, Caulfield et al. (J. Med. Chem., 2001, 44, 2679-2682), Williams et al. (Anal. Biochem., 2003, 321, 31-37, etc.), and/or Morrow et al. (FEBS Letters, 1998, 439: 334-340).
Briefly, the assays were performed as follows.
HEK 293 cells stably transfected with either human GlyT2 or human GlyT1b were used. The cells were grown in 96-well Cytostar-T™ scintillating microplates (20,000-40,000 cells/well) overnight before removal of culture medium and addition of HEPES buffered saline containing glycine (10 μM) labeled with ^14C and varying concentrations of test compounds.
Plates were incubated at room temperature for 2-3 hours, and then, the plates were counted in a plate counter.
Data were analyzed by the sigmoid dose-response curve fitting to produce IC50 (the concentration of test compound producing 50% inhibition) values.

IC50 [1] [nM]	melting point [°C]	SMILES
< 10		CCC[C@H](NC(=O)c1cc(OC)c(OCc2ccccc2)c(OC)c1)C(=O)NCC1(N(C)C)CCCC1 [Example 1.026]
	103 to 104	CCCCCCOc1ccc(C(=O)N[C@@H](CCC)C(=O)NCCN(C)C)cc1 [Example 1.001, N-[(1S)-1-[[[2-(dimethylamino)ethyl]amino]carbonyl]butyl]-4-(hexyloxy)benzamide]
